Data set [1] deals with SARS-CoV-2. Description: microbe, parasite or virus in culture. The format is cell-based.
Data set [2] relates to SARS-CoV-2. The data set can be described thus: microbe, parasite or virus in culture. Format: cell-based. To be noted: for Emax: Severe acute respiratory syndrome coronavirus 2, Calu-3, 48 h.
In data set [3] the test system is HeLa-ACE2 cells. The note with it: for EC50: read-out: HeLa-ACE2 cell count EC50 GeoMean, unrounded geometric mean.
In data set [4] the test system is Calu-3 cells. To be noted: for EC50: read-out: Calu-3 cell count EC50 GeoMean, unrounded geometric mean.
Data set [5] deals with HeLa-ACE2 cells. The data set can be described thus: Uninfected HeLa-ACE2 24 h live/dead cytotoxicity counter screen. Format: cell-based, human. On the technique in general: Counterscreens check selectivity or assay interference.
Data set [6] concerns Calu-3 cells. The data set can be described thus: Uninfected Calu-3 48 h Cell-Titer Glo cytotoxicity counter screen.
Data set [7] in a line: Uninfected HeLa-ACE2 24 h live/dead cytotoxicity counter screen. The note with it: human, uninfected HeLa-ACE2 cells. The format is cell-based, human.
Data set [8] has as its system SARS-CoV-2. Format: cell-based.
The conditions of data set [9]: ref [33]-[49], cited from earlier work.
Data set [10] is described as follows: Uninfected Calu-3 48 h Cell-Titer Glo cytotoxicity counter screen. The note with it: human, uninfected Calu-3 cells.
Data set [11] has as its system Calu-3 cells. The data set can be described thus: cells. To be noted: Homo sapiens.
The subject of data set [12] is HeLa-ACE2 cells. Description: Total cell count in the HeLa-ACE2 TOA (time of addition) assay. The format is cell-based, human. To be noted: Homo sapiens, HeLa-ACE2; read-out: HeLa-ACE2 TOA cell count EC50 GeoMean.
Data set [13] has as its system HeLa-ACE2 cells. Description: cells. The note with it: Homo sapiens.
For a further data set, the system named is HepG2. Description: HepG2 72 h CellTiter-Glo cytotoxicity. To be noted: 72 h.
A short description of data set [14]: HepG2 72 h CellTiter-Glo cytotoxicity. To be noted: human, HepG2 cells. Background: In ATP-based viability assays light output follows the ATP content of the culture.
In another data set the test system is HEK293T. Description: HEK293T 72 h CellTiter-Glo cytotoxicity. To be noted: 72 h.
Data set [15] is described as follows: HEK293T 72 h CellTiter-Glo cytotoxicity. The note with it: human, HEK293T cells.
Data set [16] has as its system SARS-CoV-2. Description: microbe, parasite or virus in culture. Format: cell-based. The source holds these as a separate data set.
The nature of another data set: in vitro. To be noted: human, Calu-3 uninfected cytotoxicity CC50 GeoMean (µM).
In data set [17] the test system is Calu-3 cells.
Setting [18] is: unrounded geometric mean, read-out: HeLa-ACE2 CoV-2 EC50 GeoMean.
The mark [19] stands for this setting: unrounded geometric mean, read-out: Calu-3 CoV-2 EC50 GeoMean.
Where [20] appears, read: curve-fit effect at infinite concentration, average.

Where a name gives a salt, the structure may show the parent alone. Read-outs that look alike come from different tables or passages of the source.

Consider Oligomycin A, for which the EC50 in the data set with SARS-CoV-2 [1] (setting [18]) is over 9.59 µM; in the data set on SARS-CoV-2 [2] (setting [19]) it was under 0.00735 µM; with HeLa-ACE2 cells [3], over 9.59 µM; with Calu-3 cells [4] it was over 0.22 µM. Further, in the data set on Calu-3 cells [4] (setting [20]), the “Calu-3 cell count Sinf Average” value is reported as 50%.

Turning to `CCN(CC)CCCNc1nccc2c(C)c3[nH]c4ccc(O)cc4c3c(C)c12` [SR-26050], the “HeLa-ACE2 CoV-2 Sinf Average” value in the data set on SARS-CoV-2 [1] (setting [20]) is reported as -101%. The EC50 with SARS-CoV-2 [1] (setting [18]) is 0.359 µM; in the data set with SARS-CoV-2 [2] (setting [19]), 0.503 µM; in the data set with HeLa-ACE2 cells [3] it was 0.48 µM; in the data set on Calu-3 cells [4] it was over 9.98 µM. For the same compound, the “HeLa-ACE2 uninfected cytotoxicity Sinf Average” value in the data set on HeLa-ACE2 cells [5] (setting [20]) was -98%. Further, the cytotoxic concentration (CC50) is 0.602 µM in the data set with HeLa-ACE2 cells [5] (unrounded geometric mean, read-out: HeLa-ACE2 uninfected cytotoxicity CC50 GeoMean) and 5.84 µM in the data set on Calu-3 cells [6] (read-out: Calu-3 uninfected cytotoxicity CC50 GeoMean, unrounded geometric mean). Moreover, the “Calu-3 uninfected cytotoxicity Sinf Average” value with Calu-3 cells [6] (setting [20]) is -100%. The “Calu-3 CoV-2 Sinf Average” value in the data set with SARS-CoV-2 [2] was -103%. Further, the “HeLa-ACE2 cell count Sinf Average” value in the data set with HeLa-ACE2 cells [3] (setting [20]) is listed as -103%.

On to `CCCCN(CCCC)CCC(O)c1cc2c(Cl)cc(Cl)cc2c2cc(C(F)(F)F)ccc12` (centres unmarked) [Halofantrine HCl], for which the Emax with SARS-CoV-2 [1] (Severe acute respiratory syndrome coronavirus 2, HeLa-ACE2, 24 h, read-out: HeLa-ACE2 CoV-2 Sinf Average) is 100%; with SARS-CoV-2 [2] (read-out: Calu-3 CoV-2 Sinf Average) it was 100%; with HeLa-ACE2 cells [13] (HeLa-ACE2, 24 h, read-out: HeLa-ACE2 cell count Sinf Average), -39%; with SARS-CoV-2 [16] (Severe acute respiratory syndrome coronavirus 2, HeLa-ACE2, 10 h, read-out: HeLa-ACE2 TOA CoV-2 Sinf Average), 100%. In addition, the EC50 in the data set with SARS-CoV-2 [1] (Severe acute respiratory syndrome coronavirus 2, HeLa-ACE2, detail column, read-out: HeLa-ACE2 CoV-2 EC50 GeoMean) is 1.16 µM; in the data set on SARS-CoV-2 [1] (Severe acute respiratory syndrome coronavirus 2, HeLa-ACE2, reconfirmed hits, read-out: HeLa-ACE2 SARS-CoV-2 EC50), 0.33 µM; with Calu-3 cells [11] (Calu-3, read-out: Calu-3 cell count EC50 GeoMean) it was over 9.98 µM; in the data set with SARS-CoV-2 [2] (Severe acute respiratory syndrome coronavirus 2, Calu-3, reconfirmed hits, read-out: Calu-3 SARS-CoV-2 EC50) it was over 8.47 µM; in the data set with HeLa-ACE2 cells [12], over 9.61 µM; in the data set with HeLa-ACE2 cells [13] (HeLa-ACE2, read-out: HeLa-ACE2 cell count EC50 GeoMean), over 6.19 µM. The EC50 in the data set on SARS-CoV-2 [16] (Severe acute respiratory syndrome coronavirus 2, HeLa-ACE2, read-out: HeLa-ACE2 TOA CoV-2 EC50 GeoMean) turned out to be 4.44 µM. In addition, the “HeLa-ACE2 SI” value in the data set on SARS-CoV-2 [1] (selectivity index, uninfected HeLa-ACE2 CC50 / SARS-CoV-2 EC50) is recorded as over 20.66. The CC50 at 24 h in data set [7] (reconfirmed hits, read-out: HeLa-ACE2 Uninf. cells CC50) was 18.7 µM; in data set [7] (read-out: HeLa-ACE2 uninfected cytotoxicity CC50 GeoMean), over 23.9 µM. Also, in the data set with HeLa-ACE2 cells [5] (human, uninfected HeLa-ACE2 cells, 24 h), the “HeLa-ACE2 uninfected cytotoxicity Sinf Average” value was -100%. Also, in the data set on SARS-CoV-2 [8] (HeLa-ACE2), the “Synergy score with remdesivir (δ)” value is given as −3.51. Besides, the “HeLa-ACE2 synergy score with remdesivi” value in the data set on SARS-CoV-2 [8] (combination with remdesivir) is -3.509 δ. For the same compound, in data set [9] (human), the “Approx. t1/2” value is 58 h. Also, the Cmax in data set [9] (read-out: Approx. Cmax, human oral) is 1 µM. The “Calu-3 uninfected cytotoxicity Sinf Average” value in the data set with Calu-3 cells [6] (human, uninfected Calu-3 cells, 48 h) is given as -100%. The CC50 at 48 h in data set [10] (Calu-3 Uninf. cells CC50 (µM), reconfirmed hits) was over 22.6 µM; in data set [10] (Calu-3 uninfected cytotoxicity CC50 GeoMean), over 22.6 µM. Further, the “Calu-3 SI” value in the data set with SARS-CoV-2 [2] (selectivity index, uninfected Calu-3 CC50 / SARS-CoV-2 EC50) is over 2.67. Besides, in the data set on HepG2, the “HepG2 72-hour cytotoxicity Sinf Average” value is on record as -100%. Moreover, the results for the CC50 at 72 h in data set [14] and in data set [15] were 30.5 µM and 25.8 µM, respectively. For the same compound, the “HEK293T 72-hour cytotoxicty Sinf Average” value in the data set on HEK293T is -100%. Moreover, in the data set with SARS-CoV-2 [16], the “TOA:HeLa-ACE2 EC50 Ratio” value is given as 3.833.

In the case of `CN(C)C(C(=O)Nc1ccc2c(=O)[nH]ccc2c1)c1ccsc1` (centres unmarked) [Verosudil], the EC50 was over 9.59 µM in the data set on SARS-CoV-2 [1] (Severe acute respiratory syndrome coronavirus 2, HeLa-ACE2, geometric mean of replicates, read-out: HeLa-ACE2 CoV-2 EC50 GeoMean); 0.561 µM with Calu-3 cells [11] (Calu-3, read-out: Calu-3 cell count EC50 GeoMean (µM), geometric mean of replicates); over 3.51 µM in the data set on SARS-CoV-2 [2] (Severe acute respiratory syndrome coronavirus 2, Calu-3, geometric mean of replicates, read-out: Calu-3 CoV-2 EC50 GeoMean); over 9.59 µM with HeLa-ACE2 cells [13] (HeLa-ACE2, read-out: HeLa-ACE2 cell count EC50 GeoMean (µM), geometric mean of replicates). Further, the cytotoxic concentration (CC50) at 48 h in the data set “in vitro” was over 18.9 µM. In data set [7] (geometric mean of replicates, read-out: HeLa-ACE2 uninfected cytotoxicity CC50 GeoMean), the CC50 at 24 h is over 39.8 µM. In addition, in the data set with HeLa-ACE2 cells [5] (Sinf average of the curves), the “HeLa-ACE2 uninfected cytotoxicity Sinf Average (%)” value is recorded as -100%. For the same compound, the Emax with Calu-3 cells [11] (Calu-3, 48 h, read-out: Calu-3 cell count Sinf Average (%)) was 79%; in the data set with SARS-CoV-2 [2] (Sinf average of the curves, read-out: Calu-3 CoV-2 Sinf Average (%)), 93%. For the same compound, in the data set with HeLa-ACE2 cells [3] (Sinf average of the curves), the “HeLa-ACE2 cell count Sinf Average (%)” value is recorded as -100%. The “uninfected Calu-3 CC50 [μM]” value in the data set with Calu-3 cells [17] was > 18.887 ×÷ 2.21 (n=3) μM. For the same compound, the “Calu-3 uninfected cytotoxicity Sinf Average (%)” value in the data set with Calu-3 cells [17] (human, 48 h) is 80%.

A word on the EC50: it is the concentration giving half of the maximal effect. The CC50 is the concentration giving 50% cytotoxicity. As usually defined, the Cmax is the peak of the concentration-time curve.

Source of the values: publication PMC8175350, “Drug repurposing screens identify chemical entities for the development of COVID-19 interventions” (Nature Communications, 2021).
